Data taken from EP0021207A1, “Alphacarbamoyl-pyrrolpropionitriles, process for their preparation and pharmaceutical preparations containing them” (priority 1979, dated 1981).

What was measured:
[1] = test system: BCG-immunisierten Makrophagen; type: cell-based, Charles River-Ratten; settings: in vitro, result in words
Adjuvansarthritis = assay: Adjuvant arthritis test in the rat; type: in vivo; settings: po, Ratten, peroral, read-out: hoch aktiv bei peroralen Dosen bis hinunter zu
Excerpt: Die Verbindungen der Erfindung zeigen wertvolle pharmakologische Eigenschaften, in erster Linie antiinflammatorische und antiarthritische Wirkungen. Diese können in in-vitro oder in-vivo Versuchen nachgewiesen werden. In den letzteren werden vorzugsweise Säugetiere, z.B. Ratten, Katzen, Meerschweinchen oder Hunde als Testobjekte verwendet. Die Verbindungen der Erfindung können ihnen enteral, vorzugsweise oral, parenteral, z.B. subkutan oder intravenös, oder topisch, z.B. in Form von Lösungen in Wasser oder Oel, oder in Form von Stärke enthaltenden Suspensionen, verabreicht werden. Die verwendete Dosis kann in einem Bereich von ungefähr zwischen 0,1 und 100 mg/kg/Tag, vorzugsweise ungefähr 1 und 50 mg/kg/Tag, in erster Linie ungefähr 2 und. 25 mg/kg/Tag, liegen. Die für die genannten Wirkungen gewählten Tests sind entweder klassische Versuchsmethoden, z.B.der Carrageenin-Pfotenödem- oder der Adjuvansarthritis-Test in der Ratte, der Synoviitis-Versuch am Hund oder der Test, in welchem das durch ultraviolettes Licht hervorgerufene Erythem ausgewertet wird, oder moderne Testmethoden. Solche sind die neutrale Protease Hemmung [beschrieben in Arthritis Rheum. 17, 47 (1974)] oder die Hemmung der Leukozyten Chemotaxis [N.Y.Acad. Sci., 256, 177 (1975)]. […]

| SMILES | Einfluss auf die Makrophagen-Chemotaxis [1] | minimal effective dose (Adjuvansarthritis) [mg/kg/day] |
| --- | --- | --- |
| COc1ccc2c(c1)c(CC(=O)O)c(C)n2C(=O)c1ccc(Cl)cc1 [Indomethacin] | beeinflusst das Indomethacin die Makrophagen-Chemotaxis nicht |  |
| Cn1cccc1C(=O)C(C#N)C(=O)Nc1ccccc1 (stereo not drawn) [1-Methyl-β-oxo-α-phenylcarbamoyl-2-pyrrol-propionitril] |  | ≥ 2 |
